In patent US20040006070A1, “Intraspinal continuous infusion of midazolam hydrochloride for the treatment of pain” (priority 2002, published 2004):
Counter-ions that a name gives are not always drawn.

Assay: Bloodwork: complete blood count, electrolytes, extended blood chemistry
Format: in vivo, sheep
Details: for Total Bili: ref 0.14-0.32; for Creatinine: ref 1-2.7; for Albumin: ref 2.4-3; for K+: ref 3.9-5.4; for Phos: ref 5-7.3; for Total Prot: ref 6-7.9
Method: Indirect blood pressure, pulse recording, pain testing (mechanical stimulus device, cold and warm water baths see description in procedure) and weight were taken on days 1, 3, 7, 15, 22, 29, 36, and 43. Venous blood samples (15 ml drawn from the jugular vein with Vacutainer brand blood collection tubes) for complete blood count, electrolytes, and extended blood chemistry were drawn on days 1, 15, and 43 (mild procedure only light hand restraint necessary).

Cc1ncc2n1-c1ccc(Cl)cc1C(c1ccccc1F)=NC2 [Midazolam, midazolam hydrochloride]
Glucose (sheep #91, 15 mg/day, Day 1): 77 mg/dL
Hct (sheep #91, 15 mg/day, Day 1): 29.2%
Hgb (sheep #91, 15 mg/day, Day 1): 9.84 g/dL
MCH (sheep #91, 15 mg/day, Day 1): 10.7 pg
MCHC (sheep #91, 15 mg/day, Day 1): 33.7 g/dL
MCV (sheep #91, 15 mg/day, Day 1): 31.8 fL
Na+ (sheep #91, 15 mg/day, Day 1): 149 mEq/l
Platlet Count (sheep #91, 15 mg/day, Day 1): 996000 µL⁻¹
RBC (sheep #91, 15 mg/day, Day 1): 9.18e+06 µL⁻¹
WBC (sheep #91, 15 mg/day, Day 1): 7090 µL⁻¹
Total Bili (sheep #91, 15 mg/day, Day 1): 0.1 mg/dL
Creatinine (sheep #91, 15 mg/day, Day 1): 1.6 mg/dL
Albumin (sheep #91, 15 mg/day, Day 1): 3.3 g/dL
K+ (sheep #91, 15 mg/day, Day 1): 4.9 mEq/l
Phos (sheep #91, 15 mg/day, Day 1): 6.2 mg/dL
Total Prot (sheep #91, 15 mg/day, Day 1): 6.1 g/dL
ALT (sheep #91, 15 mg/day, Day 15): 10 U/L
AST (sheep #91, 15 mg/day, Day 15): 50 U/L
Alk Phos (sheep #91, 15 mg/day, Day 15): 162 U/L
BUN (sheep #91, 15 mg/day, Day 15): 13 mg/dL
CPK (sheep #91, 15 mg/day, Day 15): 56 U/L
Cholesterol (sheep #91, 15 mg/day, Day 15): 56 mg/dL
Differential Count: Eosin (sheep #91, 15 mg/day, Day 15): 12%
Differential Count: Lymph (sheep #91, 15 mg/day, Day 15): 44%
Differential Count: Seg (sheep #91, 15 mg/day, Day 15): 44%
Gamma GT (sheep #91, 15 mg/day, Day 15): 60 U/L
Glucose (sheep #91, 15 mg/day, Day 15): 83 mg/dL
Hct (sheep #91, 15 mg/day, Day 15): 31.8%
Hgb (sheep #91, 15 mg/day, Day 15): 10.8 g/dL
MCH (sheep #91, 15 mg/day, Day 15): 10.8 pg
MCHC (sheep #91, 15 mg/day, Day 15): 34.0 g/dL
MCV (sheep #91, 15 mg/day, Day 15): 31.8 fL
Na+ (sheep #91, 15 mg/day, Day 15): 148 mEq/l
Platlet Count (sheep #91, 15 mg/day, Day 15): 848000 µL⁻¹
RBC (sheep #91, 15 mg/day, Day 15): 1e+07 µL⁻¹
WBC (sheep #91, 15 mg/day, Day 15): 5130 µL⁻¹
Total Bili (sheep #91, 15 mg/day, Day 15): 0.0 mg/dL
Creatinine (sheep #91, 15 mg/day, Day 15): 1.3 mg/dL
Albumin (sheep #91, 15 mg/day, Day 15): 3.3 g/dL
K+ (sheep #91, 15 mg/day, Day 15): 4.4 mEq/l
Phos (sheep #91, 15 mg/day, Day 15): 6.1 mg/dL
Total Prot (sheep #91, 15 mg/day, Day 15): 6.2 g/dL
ALT (sheep #91, 15 mg/day, Day 43): 9 U/L
AST (sheep #91, 15 mg/day, Day 43): 63 U/L
Alk Phos (sheep #91, 15 mg/day, Day 43): 174 U/L
BUN (sheep #91, 15 mg/day, Day 43): 14 mg/dL
CPK (sheep #91, 15 mg/day, Day 43): 54 U/L
Cholesterol (sheep #91, 15 mg/day, Day 43): 66 mg/dL
Differential Count: Eosin (sheep #91, 15 mg/day, Day 43): 5%
Differential Count: Lymph (sheep #91, 15 mg/day, Day 43): 41%
Differential Count: Mono (sheep #91, 15 mg/day, Day 43): 2%
Differential Count: Seg (sheep #91, 15 mg/day, Day 43): 52%
Gamma GT (sheep #91, 15 mg/day, Day 43): 58 U/L
Glucose (sheep #91, 15 mg/day, Day 43): 81 mg/dL
Hct (sheep #91, 15 mg/day, Day 43): 36.3%
Hgb (sheep #91, 15 mg/day, Day 43): 12.2 g/dL
MCH (sheep #91, 15 mg/day, Day 43): 10.4 pg
MCHC (sheep #91, 15 mg/day, Day 43): 33.6 g/dL
MCV (sheep #91, 15 mg/day, Day 43): 30.9 fL
Na+ (sheep #91, 15 mg/day, Day 43): 147 mEq/l
Platlet Count (sheep #91, 15 mg/day, Day 43): 805000 µL⁻¹
RBC (sheep #91, 15 mg/day, Day 43): 1.18e+07 µL⁻¹
WBC (sheep #91, 15 mg/day, Day 43): 5330 µL⁻¹
Total Bili (sheep #91, 15 mg/day, Day 43): 0.1 mg/dL
Creatinine (sheep #91, 15 mg/day, Day 43): 1.5 mg/dL
Albumin (sheep #91, 15 mg/day, Day 43): 3.6 g/dL
K+ (sheep #91, 15 mg/day, Day 43): 4.6 mEq/l
Phos (sheep #91, 15 mg/day, Day 43): 7.3 mg/dL
Total Prot (sheep #91, 15 mg/day, Day 43): 6.4 g/dL
ALT (sheep #457, 15 mg/day, Day 1): 10 U/L
AST (sheep #457, 15 mg/day, Day 1): 85 U/L
Alk Phos (sheep #457, 15 mg/day, Day 1): 43 U/L
BUN (sheep #457, 15 mg/day, Day 1): 14 mg/dL
CPK (sheep #457, 15 mg/day, Day 1): 122 U/L
Cholesterol (sheep #457, 15 mg/day, Day 1): 59 mg/dL
Differential Count: Eosin (sheep #457, 15 mg/day, Day 1): 1%
Differential Count: Lymph (sheep #457, 15 mg/day, Day 1): 26%
Differential Count: Seg (sheep #457, 15 mg/day, Day 1): 73%
Gamma GT (sheep #457, 15 mg/day, Day 1): 59 U/L
Glucose (sheep #457, 15 mg/day, Day 1): 91 mg/dL
Hct (sheep #457, 15 mg/day, Day 1): 34.4%
Hgb (sheep #457, 15 mg/day, Day 1): 10.5 g/dL
MCH (sheep #457, 15 mg/day, Day 1): 10.2 pg
MCHC (sheep #457, 15 mg/day, Day 1): 30.5 g/dL
MCV (sheep #457, 15 mg/day, Day 1): 33.4 fL
Na+ (sheep #457, 15 mg/day, Day 1): 147 mEq/l
Platlet Count (sheep #457, 15 mg/day, Day 1): 276000 µL⁻¹
RBC (sheep #457, 15 mg/day, Day 1): 8.68e+06 µL⁻¹
WBC (sheep #457, 15 mg/day, Day 1): 11900 µL⁻¹
Total Bili (sheep #457, 15 mg/day, Day 1): 0.1 mg/dL
Creatinine (sheep #457, 15 mg/day, Day 1): 1.1 mg/dL
Albumin (sheep #457, 15 mg/day, Day 1): 2.8 g/dL
K+ (sheep #457, 15 mg/day, Day 1): 4.4 mEq/l
Phos (sheep #457, 15 mg/day, Day 1): 6.2 mg/dL
Total Prot (sheep #457, 15 mg/day, Day 1): 5.0 g/dL
ALT (sheep #457, 15 mg/day, Day 15): 14 U/L
AST (sheep #457, 15 mg/day, Day 15): 55 U/L
Alk Phos (sheep #457, 15 mg/day, Day 15): 93 U/L
BUN (sheep #457, 15 mg/day, Day 15): 20 mg/dL
CPK (sheep #457, 15 mg/day, Day 15): 73 U/L
Cholesterol (sheep #457, 15 mg/day, Day 15): 65 mg/dL
Differential Count: Lymph (sheep #457, 15 mg/day, Day 15): 71%
Differential Count: Mono (sheep #457, 15 mg/day, Day 15): 3%
Differential Count: Seg (sheep #457, 15 mg/day, Day 15): 24%
Gamma GT (sheep #457, 15 mg/day, Day 15): 72 U/L
Glucose (sheep #457, 15 mg/day, Day 15): 60 mg/dL
Hct (sheep #457, 15 mg/day, Day 15): 35.4%
Hgb (sheep #457, 15 mg/day, Day 15): 10.9 g/dL
MCH (sheep #457, 15 mg/day, Day 15): 10.6 pg
MCHC (sheep #457, 15 mg/day, Day 15): 30.8 g/dL
MCV (sheep #457, 15 mg/day, Day 15): 34.4 fL
Na+ (sheep #457, 15 mg/day, Day 15): 150 mEq/l
Platlet Count (sheep #457, 15 mg/day, Day 15): 45000 µL⁻¹
RBC (sheep #457, 15 mg/day, Day 15): 8.72e+06 µL⁻¹
WBC (sheep #457, 15 mg/day, Day 15): 15400 µL⁻¹
Total Bili (sheep #457, 15 mg/day, Day 15): 0.1 mg/dL
Creatinine (sheep #457, 15 mg/day, Day 15): 1.1 mg/dL
Albumin (sheep #457, 15 mg/day, Day 15): 3.3 g/dL
K+ (sheep #457, 15 mg/day, Day 15): 4.4 mEq/l
Phos (sheep #457, 15 mg/day, Day 15): 4.7 mg/dL
Total Prot (sheep #457, 15 mg/day, Day 15): 5.9 g/dL
ALT (sheep #457, 15 mg/day, Day 43): 12 U/L
AST (sheep #457, 15 mg/day, Day 43): 69 U/L
Alk Phos (sheep #457, 15 mg/day, Day 43): 105 U/L
BUN (sheep #457, 15 mg/day, Day 43): 15 mg/dL
CPK (sheep #457, 15 mg/day, Day 43): 51 U/L
Cholesterol (sheep #457, 15 mg/day, Day 43): 88 mg/dL
Differential Count: Eosin (sheep #457, 15 mg/day, Day 43): 7%
Differential Count: Lymph (sheep #457, 15 mg/day, Day 43): 68%
Differential Count: Mono (sheep #457, 15 mg/day, Day 43): 2%
Differential Count: Seg (sheep #457, 15 mg/day, Day 43): 23%
Gamma GT (sheep #457, 15 mg/day, Day 43): 61 U/L
Glucose (sheep #457, 15 mg/day, Day 43): 67 mg/dL
Hct (sheep #457, 15 mg/day, Day 43): 40.4%
Hgb (sheep #457, 15 mg/day, Day 43): 12.6 g/dL
MCH (sheep #457, 15 mg/day, Day 43): 11.5 pg
MCHC (sheep #457, 15 mg/day, Day 43): 31.2 g/dL
MCV (sheep #457, 15 mg/day, Day 43): 33.7 fL
Na+ (sheep #457, 15 mg/day, Day 43): 145 mEq/l
RBC (sheep #457, 15 mg/day, Day 43): 1.098e+07 µL⁻¹
WBC (sheep #457, 15 mg/day, Day 43): 11200 µL⁻¹
Total Bili (sheep #457, 15 mg/day, Day 43): 0.1 mg/dL
Creatinine (sheep #457, 15 mg/day, Day 43): 1.4 mg/dL
Albumin (sheep #457, 15 mg/day, Day 43): 3.3 g/dL
K+ (sheep #457, 15 mg/day, Day 43): 4.9 mEq/l
Phos (sheep #457, 15 mg/day, Day 43): 5.9 mg/dL
Total Prot (sheep #457, 15 mg/day, Day 43): 5.7 g/dL
ALT (sheep #473, 3 mg/day, Day 1): 22 U/L
